{"source": "patent US6936619B2", "about": "“Quinazolinone compounds useful in therapy” (Pfizer, Inc., priority 2002, dated 2005)", "target": "T1, α1L Receptor (Oryctolagus cuniculus, UniProt O02824)", "T1 construct": "A single rabbit aorta was cleaned of connective tissue, cut into rings; from tissue; host or cells: rabbit aorta rings", "T1 sequence (O02824 1-466)": "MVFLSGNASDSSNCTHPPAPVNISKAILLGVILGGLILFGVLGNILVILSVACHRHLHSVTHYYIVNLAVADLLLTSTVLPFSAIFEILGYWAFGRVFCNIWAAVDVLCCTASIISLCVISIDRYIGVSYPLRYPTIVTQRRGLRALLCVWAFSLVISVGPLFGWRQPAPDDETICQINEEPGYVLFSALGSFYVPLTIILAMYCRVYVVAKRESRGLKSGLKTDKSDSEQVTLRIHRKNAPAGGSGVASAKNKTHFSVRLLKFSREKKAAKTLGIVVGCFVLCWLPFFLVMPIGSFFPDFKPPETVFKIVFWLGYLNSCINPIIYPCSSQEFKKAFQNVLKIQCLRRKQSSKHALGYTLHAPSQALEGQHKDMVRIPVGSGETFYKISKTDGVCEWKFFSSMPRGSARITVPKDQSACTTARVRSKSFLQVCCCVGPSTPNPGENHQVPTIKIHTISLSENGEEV", "assay": "Contractile responses of rabbit aorta (methoxamine-induced), antagonist pA2", "conditions": "rabbit aorta rings, methoxamine as agonist, 60 minutes with compound, Schild analysis; read-out: pA2 v α1L (converted)", "protocol": "Contractile Responses of Rabbit Aorta (α1L Receptor)\nA single rabbit aorta was cleaned of connective tissue, cut into rings ˜3 mm in length, then denuded of […] by rubbing very gently with a probe. The lengths of tissue are then mounted in the 5 mL organ baths, which contain the modified Krebs of the following composition (mM): NaCl (119), KCl (4.7), CaCl2 (2.5), KH2PO4 (1.2), MgSO4 (1.2), NaHCO3 (25), glucose (11), and gassed with 95% O2/5% CO2. The tissues are placed under ˜1.5 g tension, and are left to equilibrate for ˜60 minutes on a pump speed of ˜5 mL\\minute, adjusting the tension to 1-1.5 g if necessary after 15 and 45 minutes. A 1M stock solution (1×10^−3M bath conc.) of methoxamine in water was made and 1:10 dilutions made using the same diluent. A sensitising dose of 120 mM KCl (bath concentration) was added to each bath. After the maximum response had been reached (usually about 6-8 minutes), the tissues are washed with Krebs solution for 60 minutes, pump speed at ˜2.97 mL/min. […]\nThe data was captured on ADA analysis in-vitro software, which expresses the readings as a % of the maximum response of the control curve, draws control and test compound dose response curves, and calculates a EC50 and then dose ratio (DR), the ratio between control and treatment curve EC50, for each treatment. […]", "data": [{"smiles": "COc1cc(C2CC2)c2c(=O)[nH]c(N3CCc4nc(CN5CCOCC5)ccc4C3)nc2c1", "note": "[Example 11, 5-Cyclopropyl-7-methoxy-2-(2-morpholin-4-ylmethyl-7,8-dihydro[1,6]-naphthyridin-6(5H)-yl)-4(3H)-quinazolinone]", "values": [{"measurement": "Kb", "result": 100, "unit": "pM"}]}]}
